# Earlier results in patent US8193201B2, “Synergistic anti-inflammatory pharmaceutical compositions and related methods using curcuminoids or methylxanthines” (priority 2004, dated 2012).
# System: PGE2
# Conditions: value reported in the literature (Fiebich et al.)
smiles,measurement,value
"Cn1c(=O)c2c(ncn2C)n(C)c1=O [Caffeine, caffeine]",median PGE2 inhibitory concentration,8.2 µg/mL
